Measurements as given in US11304916B2 (priority 2019, dated 2022).
“Also recorded” adds a separate entry of the source. Read-outs that look alike come from different tables or passages of the source.

Key:
STx2-induced cell death = assay type: cell-based, human
[1] = test system: transport of STx2B to the Golgi apparatus; assay type: cell-based, human
[2] = test system: pH of endolysosomal compartments; assay type: cell-based, human
[3] = test system: transport of STx1 B-subunit (STx1B) to the Golgi; conditions: cited from earlier work
[4] = test system: transport of STx2B to the Golgi apparatus; conditions: cited from earlier work
lethal STx1 toxicosis [5] = conditions: mouse, in vivo; cited from earlier work
[6] = test system: recruitment of retromer component Vps26 to early endosomes; assay type: cell-based, human
HeLa cells = conditions: 10 μM
lethal STx1 toxicosis [7] = conditions: mouse, in vivo
STx1-induced cell death = assay type: cell-based, human
[8] = test system: transport of STx1 B-subunit (STx1B) to the Golgi; assay type: cell-based, human
LC3-positive punctae = assay type: cell-based, human
lethal STx2 toxicosis = conditions: mouse, in vivo

With `CC/C(=C(\c1ccc(O)cc1)c1ccc(OCCN(C)C)cc1)c1ccccc1` [4-hydroxytamoxifen, (Z)-4-(1-(4-(2-(dimethylamino)ethoxy)phenyl)-2-phenylbut-1-en-1-yl)phenol] the “Protection against STx2-induced cell death relative to tamoxifen” value (STx2-induced cell death) was “A lower level of protection”.
For `CO/C1=C\C(C)=C\[C@@H](C)[C@@H](O)[C@@H](C)C/C(C)=C/C=C/[C@H](OC)[C@@H]([C@@H](C)[C@@H](O)[C@H](C)[C@@]2(O)C[C@@H](O)[C@H](C)[C@@H](C(C)C)O2)OC1=O` [bafilomycin A1], the “STx2B transport after short treatment” value [1] was “did not have an effect; also recorded: There were no differences between groups”, the “Transport of STx2B to the Golgi apparatus” value [1] was “robustly inhibited the transport of STx2B to the Golgi apparatus” and the “Change in endolysosomal pH (Lysosensor signal)” value [2] was “a similar effect was observed”. The “Morphology of endolysosomal compartments” value [2] was “morphological differences were apparent”.
For `CCN(CC)CCCC(C)Nc1ccnc2cc(Cl)ccc12` (stereo not drawn) [chloroquine], the “Transport of STx2B to the Golgi apparatus” value [1] was “inhibitors of STx2B transport”.
For `CC/C(=C(\c1ccc(O)cc1)c1ccc(OCCNC)cc1)c1ccccc1` [endoxifen, (Z)-4-(1-(4-(2-(methylamino)ethoxy)phenyl)-2-phenylbut-1-en-1-yl)phenol], the “Protection against STx2-induced cell death relative to tamoxifen” value (STx2-induced cell death) was “substantially weaker than tamoxifen or 4-hydroxytamoxifen”.
In the case of `[Mn+2]` [manganese], the “Early endosome-to-Golgi transport of STx1 (literature)” value [3] is given as “blocks the early endosome-to-Golgi transport of STx1”, the “Sensitivity of STx2 transport to manganese (literature)” value [4] is given as “manganese-insensitive” and the “Protection against lethal STx1-toxicosis (literature)” value (lethal STx1 toxicosis [5]) is given as “protects cells and mice against lethal STx1-toxicosis”.
In the case of `OCCOc1ccc(/C(=C(/CCCl)c2ccccc2)c2ccccc2)cc1` [ospemifene], the “Transport of STx2B to the Golgi (data not shown)” value [1] is reported as “did not”, the “Protection against STx2-induced cell death relative to tamoxifen” value (STx2-induced cell death) is reported as “failed to protect all together” and the “Recruitment of Vps26 to early endosomes” value [6] is reported as “did not”.
In the case of `O=C(c1ccc(OCCN2CCCCC2)cc1)c1c(-c2ccc(O)cc2)sc2cc(O)ccc12` [raloxifene, (6-hydroxy-2-(4-hydroxyphenyl)benzo[b]thiophen-3-yl)(4-(2-(piperidin-1-yl)ethoxy)phenyl)methanone], the “Cytotoxicity / cell viability of compound by itself” value (“Cytotoxicity / cell viability” for short) (HeLa cells) is reported as “did not alter cell viability by themselves” and the “Protection against STx2-induced cell death relative to tamoxifen” value (STx2-induced cell death) is reported as “provided as much protection as tamoxifen against STx2-induced cell death”.
For `CC/C(=C(\c1ccccc1)c1ccc(OCCN(C)C)cc1)c1ccccc1` [tamoxifen, (Z)-2-(4-(1,2-diphenyl-1-butenyl)phenoxy)-N,N-dimethylethan-1-amine], the “Health until end of experiment, STx1-group” value (lethal STx1 toxicosis [7]) was “a subset of tamoxifen-treated mice remained healthy until the end of the experiment”, the “Survival of STx1-treated mice” value (lethal STx1 toxicosis [7]; ip) was “significantly improved the survival” and the “Protection against STx1-induced cell death” value (STx1-induced cell death) was about 50 fold. For the same compound, the “Transport of STx1B to the Golgi and STx1B degradation” value [8] was “inhibited the transport of STx1 B-subunit (STx1B) to the Golgi and induced degradation of STx1B”, the LC3-positive punctae (LC3-positive punctae) was “elevated” and the “Cytotoxicity / cell viability” value (HeLa cells) was “without inducing cytotoxicity”. For the same compound, the “Fate of STx2B in treated cells” value [1] was “the toxin failed to traffic to the Golgi and instead was rerouted to Rab7-positive late endosomes and degraded”, the “STx2B transport after short treatment” value [1] was “did not have an effect; also recorded: There were no differences between groups” and the “Transport of STx2B to the Golgi apparatus” value [1] was “inhibitors of STx2B transport”. The “Inhibitory effect on STx2B transport compared with chloroquine” value ([1]; 24 h) was “had a greater inhibitory effect”, the “Change in endolysosomal pH (Lysosensor signal)” value [2] was “an increase evident at early time-points (30-60 min) but not 24 h after treatment” and the “Morphology of endolysosomal compartments” value [2] was “morphological differences were apparent”. For the same compound, the “Lowest tamoxifen dose at which protection was evident” value (STx2-induced cell death) was 2.5 µM, the “Protection against STx2-induced cell death” value (STx2-induced cell death) was about 200 fold and the “Protection against STx2 with additional oral tamoxifen after toxin” value (lethal STx2 toxicosis) was “A similar level of protection against STx2”. For the same compound, the “Survival time versus vehicle, STx2” value (lethal STx2 toxicosis) was “survived for significantly longer than those that received vehicle”, the “Survival of STx2-treated mice” value (lethal STx2 toxicosis; ip) was “significantly improved the survival” and the “Positioning of early endosomes” value [6] was “gained a perinuclear prominence”. The “Recruitment of Vps26 to early endosomes” value ([6]; 10 μM) was “enhanced”.
For `CN(C)CCOc1ccc(/C(=C(/CCCl)c2ccccc2)c2ccccc2)cc1` [toremifene, (Z)-2-(4-(4-chloro-1,2-diphenylbut-1-en-1-yl)phenoxy)-N,N-dimethylethan-1-amine], the “Cytotoxicity / cell viability” value (HeLa cells) was “did not alter cell viability by themselves”, the “Transport of STx2B to the Golgi (data not shown)” value ([1]; 10 μM) was “blocked transport of STx2B to the Golgi” and the “Endolysosomal pH at 30 min (data not shown)” value ([2]; 10 μM, 30 min) was “increased endolysosomal pH at 30 min”. The “Protection against STx2-induced cell death relative to tamoxifen” value (STx2-induced cell death) was “provided as much protection as tamoxifen against STx2-induced cell death” and the “Recruitment of Vps26 to early endosomes” value ([6]; 10 μM) was “increased Vps26 levels on early endosomes at 24 h”.
